# Experiments:
# Assay type in all cases: cell-based
# [1] = tested on: chick periosteal osteogenesis (CPO) cultures; experiment: Histological evaluation of bone formation in chick periosteal osteogenesis (CPO) cultures
# Method: (§1) In this experiment, the chick periosteal osteogenesis (CPO) model was used to determine if bone loss is induced by dioxin. The CPO model has been described in detail previously (Nijweide, Proc. Kon. Ned. Akad. Wet. 1975. C78:410-417) and was prepared for the purposes of this experiment as set out below.
# (§2) Following sacrifice, two triangular calvarial explants were removed by cutting along the central suture, transversely along the posterior suture and laterally above the eye in 17-day-old embryonic chicks. The ectocranial periosteum (outer curved surface) was peeled off using forceps under microscopic magnification and folded so that the surface originally facing bone was in apposition to itself as described previously (Tenenbaum et al., Calcif Tissue Int. 34:76-79). The folded explant was then placed on a Millipore filter (HA 0.45 μm), which was transferred onto a stainless steel grid resting in the center well of an organ culture dish (Falcon Plastics, Lincoln Park, N.J., USA) that was filled with culture media to a level such that the culture was supported at the gas-liquid interface (˜1.5 ml of media). Three cultures were placed in each dish which was then covered and incubated at 37° C. in a humidified atmosphere containing 5% CO2 in air. Media changes occurred on days 2 and 4, and the medium was comprised of BGJb medium (Fitton-Jackson Modification) with L-glutamine (Gibco, Grand Island, N.Y., USA) and supplemented with 2% antibiotic (10,000 units/ml Penicillin G sodium, 10,000 μg/ml Streptomycin sulfate in 0.85% saline) (Gibco), 10% fetal calf serum (Gibco), 10^−7M dexamethasone (Sigma, St. Louis, Mo., USA), 10 mM β-glycerophosphate, and 300 μg/ml L-ascorbate (Gibco).
# For the purposes of this investigation, the effects of a potent aryl hydrocarbon, TCDD (2,3,7,8-tetrachlorodibenzo-p-dioxin or dioxin) on the early events occurring during osteogenesis were determined. The CPO model traverses a number of phases of osteogenesis. […]
# [2] = tested on: rat bone marrow cells (RBMC); experiment: APA in primary rat bone marrow cell (RBMC) bone formation system
# Description: Rat bone marrow cells were derived from femoral bones removed from adult male Wistar rats as described previously (Maniatopoulos et al., Cell Tissue Res, 1988, 254(2):317-330). These cells, grown in the presence of dexamethasone, vitamin C and b-glycerophosphate, differentiated into osteoblasts as shown by increases in APA and the production of mineralized bone nodules within 12-14 days. For the purposes of this investigation, we analyzed 10-16 day cultures for APA, as this was a reliable marker for osteoblastic differentiation in this system.
# [3] = tested on: chick periosteal osteogenesis (CPO) cultures; experiment: Alkaline phosphatase activity (APA) in CPO cultures
# Method: as §1, §2
# For the purposes of this investigation, the effects of a potent aryl hydrocarbon, TCDD (2,3,7,8-tetrachlorodibenzo-p-dioxin or dioxin) on the early events occurring during osteogenesis were determined. The CPO model traverses a number of phases of osteogenesis. Therefore, it was possible to design temporal or “window” experiments in order to determine the phases of osteogenesis that were sensitive to TCDD and/or resveratrol. […] All cultures were maintained for the entire 6-day period. The compounds were administered over four different temporal phases, as outlined below in the time-line diagram: a) days 0-6; b) days 0-2; c) days 2-4 or d) days 4-6 (Note: all cultures were stopped at 6 days). Results were compared to e) vehicle alone over days 0-6. [drawing 1]
# On day 6, the culture dishes were placed on ice and individual cultures were transferred to separate test tubes and stored at −20° C. for further analysis.
# CPO cultures were assayed for AP activity using paranitrophenol-phosphate (pN-p) as the substrate (Demetriou et al. J Biol Chem. 1996. 271(22)12755-61). The intensity of the colour change was evaluated using a Titertek® Multiskan® MCC/340 Spectrophotometer (Flow Laboratories, Mississauga, ON, Canada) and compared to a standard curve obtained from a serial dilution of 10 mM pN with bicarbonate buffer (pH 7.4) in flat bottomed Titertek 96-well plates as described previously (Demetriou et al., 1996, supra). The reaction was stopped with 100 μl of 0.2N NaOH and pN-p levels read at 405 nm on the Titertek. Calcium incorporation was assayed in the pellets produced from centrifugation of the homogenized CPO cultures following hydrolysis in 500 μl of 0.5N HCl and then measured using atomic absorption spectrophotometry (Sukhu et al. Endocrinology. 1997. 138 (8):3269-75).
# [4] = tested on: rat SBMC (stromal bone marrow cell) line; experiment: AP activity in rat stromal bone marrow cell (SBMC) line
# Method: (§3) Cells for the rat SBMC model were obtained from Dr. Sandu Pitaru (Tel Aviv University, Israel) and maintained in T25 tissue culture flasks (Sarstedt, Newton, N.C., USA) in a medium composed of αMEM+RNA+DNA+antibiotic supplemented with 10% fetal calf serum, 10 mM β-glycerophosphate, 10^−8M dexamethasone, 50 μg/ml vitamin C and 3 ng/ml fibroblast growth factor. The media were changed every 48 hours and the cells subcultured when almost confluent (approximately every 72 hrs). Cells were grown for a period of 1-2 weeks to allow for formation of mineralized bone nodules.
# (§4) SBMC cultures were assayed for AP activity using paranitrophenol-phosphate (pN-p) as the substrate as described above for CPO cultures. In some cases, AP activity was also measured using direct staining of SBMC cultures in 96 well plates as described previously (Tenenbaum et al., Anat Rec. 1995. 242(2):200-10). Mineralization in the SBMC cultures was determined using Alizarin Red staining in situ that was assessed with the Titertek spectrophotometer set at 525 nm.
# [5] = tested on: rat SBMC (stromal bone marrow cell) line; experiment: Mineralization (Alizarin Red staining) in rat SBMC line
# Method: as §3, §4
structure (smiles),measurement,setting,value
"Clc1cc2c(cc1Cl)Oc1cc(Cl)c(Cl)cc1O2 [TCDD, 2,3,7,8-tetrachlorodibenzo-p-dioxin]",bone formation (histology),"[1]; TCDD-treated CPO cultures, FIG. 1B",obvious changes in bone formation
same,inhibition at 0.001 µM,"[2]; Rattus norvegicus, Bone marrow cell, read-out: inhibition of osteodifferentiation as measured by APA, compared to alcohol-treated control",~50%
same,reduction in AP activity,"[3]; 10^−9M TCDD alone during days 0-2, p<0.05 vs. vehicle",53%
same,change in AP activity,[3]; 10^−9M TCDD alone during days 2-4 or 4-6,did not significantly alter AP activity
same,reduction in AP activity versus vehicle alone,[3]; 10^−9M TCDD over a 6-day period,80%
same,reduction in AP activity,[4]; TCDD 1.1×10^−9M,33%
same,reduction in AP activity versus control,[4]; TCDD 3.3×10^−9M and higher,33%
same,dose dependence of reduction in AP activity,[4]; TCDD 3.3×10^−9M to 4.12×10^−11M,dose dependant
same,AP activity,[4]; TCDD 4.12×10^−11M,not affected
same,"reduction in mineralization (Alizarin Red Staining), dose dependence",[5]; TCDD 4.12×10^−11M to 1.52×10^−12M,dose dependant reduction in mineralization
same,decrease in mineralization,[5]; in the presence of TCDD,approximately 75%
"Oc1ccc(C=Cc2cc(O)cc(O)c2)cc1 [resveratrol, 3,5,4′-trihydroxystilbene]",reversal of TCDD effect on bone formation (histology),"[1]; cultures treated with both TCDD and resveratrol, FIG. 1D",complete reversal of the TCDD effect
same,bone formation (histology),"[1]; resveratrol alone, FIG. 1C",large deposits of bone similar to the control cultures
same,abrogation of TCDD effects on APA,"[2]; resveratrol 10^−6 molar in alcohol, added together or singly between days 4-10, FIG. 9",completely abrogated the effects of TCDD
same,effect on APA,[2]; resveratrol alone,no significant effects
same,change in AP activity,"[3]; 10^−6M resveratrol alone over days 0-6, 0-2, 2-4 or 4-6",No significant change in AP activity
same,increase in AP activity in comparison to TCDD alone,"[3]; resveratrol 10^−5M, 10^−6M and 10^−7M with TCDD, FIG. 2a",2-4 fold
same,effect on AP activity,"[4]; increasing concentration of resveratrol, TCDD 4.12×10^−11M",had no effect
same,abrogation of TCDD effect on AP activity,"[4]; resveratrol 4×10^−8M to 1×10^−5M, TCDD 1.1×10^−9M",abrogated the effects of TCDD
same,reversal of TCDD reduction in AP activity,"[4]; resveratrol at various concentrations, TCDD 3.3×10^−9M and higher",not reversed
same,effect on TCDD-induced decrease in mineralization,[5]; resveratrol with TCDD,attenuated
